Source: PubChem BioAssay AID602168 (The Scripps Research Institute Molecular Screening Center, 2012)
Activity calls are given as the source filed them. The rule behind the calls is not given here.

The molecules below were run against Nuclear receptor coactivator 1 (Homo sapiens) (UniProt Q15788) (assay: SRC1 coactivator transcriptional activity inhibitors, dose response, counter-screen for SRC3 inhibitor project, cell-based, luminescence (AID 602168)). Settings: Cell-based SRC1 luciferase reporter.
Nuclear receptor coactivator 1 (Homo sapiens), sequence (Q15788 whole entry, looked up): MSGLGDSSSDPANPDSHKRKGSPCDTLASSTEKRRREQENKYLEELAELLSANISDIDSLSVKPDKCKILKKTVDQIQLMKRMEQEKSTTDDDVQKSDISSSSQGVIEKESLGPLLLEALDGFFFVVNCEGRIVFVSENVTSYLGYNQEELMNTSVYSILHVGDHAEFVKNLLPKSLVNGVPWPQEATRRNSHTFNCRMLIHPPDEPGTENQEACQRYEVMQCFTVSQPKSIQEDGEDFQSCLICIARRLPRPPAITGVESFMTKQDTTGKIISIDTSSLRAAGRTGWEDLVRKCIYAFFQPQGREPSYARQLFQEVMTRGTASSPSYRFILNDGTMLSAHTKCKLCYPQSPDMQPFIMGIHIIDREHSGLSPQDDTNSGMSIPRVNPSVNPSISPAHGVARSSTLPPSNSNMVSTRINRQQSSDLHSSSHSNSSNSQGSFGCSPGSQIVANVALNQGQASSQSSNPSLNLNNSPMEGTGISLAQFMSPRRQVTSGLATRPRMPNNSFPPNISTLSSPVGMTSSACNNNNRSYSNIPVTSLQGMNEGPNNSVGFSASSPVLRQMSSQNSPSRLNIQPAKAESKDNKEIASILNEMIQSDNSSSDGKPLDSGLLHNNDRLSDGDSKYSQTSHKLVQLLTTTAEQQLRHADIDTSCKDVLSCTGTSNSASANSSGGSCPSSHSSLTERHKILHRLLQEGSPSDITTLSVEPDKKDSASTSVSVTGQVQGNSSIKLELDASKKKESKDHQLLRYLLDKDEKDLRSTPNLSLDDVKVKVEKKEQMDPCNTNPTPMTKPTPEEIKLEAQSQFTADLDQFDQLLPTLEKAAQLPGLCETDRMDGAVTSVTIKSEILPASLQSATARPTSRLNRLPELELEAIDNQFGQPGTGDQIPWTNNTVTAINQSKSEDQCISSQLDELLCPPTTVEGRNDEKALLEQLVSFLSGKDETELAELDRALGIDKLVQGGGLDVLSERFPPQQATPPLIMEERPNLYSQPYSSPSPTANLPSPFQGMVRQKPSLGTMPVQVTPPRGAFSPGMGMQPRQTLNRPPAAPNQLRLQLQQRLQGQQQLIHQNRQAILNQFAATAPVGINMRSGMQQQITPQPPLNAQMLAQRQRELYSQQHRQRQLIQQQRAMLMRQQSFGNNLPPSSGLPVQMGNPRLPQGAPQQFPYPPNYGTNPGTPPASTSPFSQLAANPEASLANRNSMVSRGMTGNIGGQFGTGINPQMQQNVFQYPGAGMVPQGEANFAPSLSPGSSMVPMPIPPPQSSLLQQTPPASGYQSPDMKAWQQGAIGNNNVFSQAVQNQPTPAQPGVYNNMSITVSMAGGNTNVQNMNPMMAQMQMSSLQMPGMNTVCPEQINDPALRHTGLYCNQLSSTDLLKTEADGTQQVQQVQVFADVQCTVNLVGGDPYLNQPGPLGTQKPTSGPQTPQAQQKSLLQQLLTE
`Fc1ccccc1-c1csc(=Nc2cccnc2)n1CCCn1ccnc1` showed an IC50 of 7.21 µM. `COc1ccccc1C(=O)N(CCC1CCCN1C)c1nc2ccccc2s1` (stereo unspecified) was tested, and the IC50 was > 35.9 µM (inactive). `Nc1ccc(-c2cc3ccccc3oc2=O)cc1` was tested, and the IC50 was > 35.9 µM (inactive). With `COc1ccc(C(C(=O)NC2CCCCC2)N(C(=O)CCl)c2ccc(Cl)cc2)cc1` (stereo unspecified) the IC50 was “inactive”. In the case of `NS(=O)(=O)c1ccc(Sc2nc3ccccc3s2)c([N+](=O)[O-])c1`, the IC50 is reported as > 35.9 µM (inactive). In the case of `O=C(Nc1cccc(C(F)(F)F)c1)Nc1nnc([C@@H]2C[C@H](O)[C@@H](CO)O2)s1`, the IC50 is reported as 5.71 µM. In the case of `COc1ccc(-n2cnc3c(sc4nccc(N(C)C)c43)c2=O)cc1`, the IC50 is reported as “inactive”. In the case of `O=C(CC(Nc1ccc(Cl)cc1Cl)C(=O)O)c1ccccc1` (stereo unspecified), the IC50 is reported as > 35.9 µM (inactive). With `Cc1c(/C(O)=C2/C(=O)C(=O)N(Cc3cccnc3)C2c2ccccn2)cnn1-c1ccccc1` (stereo unspecified) the IC50 was > 35.9 µM (inactive). With `CC(C)(C)c1cc(C(=O)N/N=C/c2ccc(O)cc2)n(-c2ccccc2)n1` the IC50 was > 35.9 µM (inactive). With `CC(C)(C)n1ncc2c(=O)n(CC(=O)OCc3ccccc3)cnc21` the IC50 was > 35.9 µM (inactive).
